Reference: patent US6903132B2, “Non-peptide GnRH agents, pharmaceutical compositions and methods for their use” (Agouron Pharmaceuticals, Inc., priority 2002, dated 2005)

Columns and labels:
[1] = Pharmacokinetics in female rats; assay type: in vivo, rat; settings: for FR Fp.o.: 20 mg/kg as 10 mg/ml solution in 10% DMSO 10% cremophor 80% saline, AUCp.o./AUCi.v.; for Tmax: rat, plasma, po, dose and vehicle per footnote, read-out: FR Tmax hr
Method: Rats (male or female, 200-225 g) are prepared with indwelling jugular vein cannula as described by Harms et al., Applied Physiol. 36:391-398 (1974), and allowed to recover overnight with free access to the standard vivarium chow and water. […] […] The blood samples are withdrawn at specific times, plasma is immediately separated and compound extracted with ethyl acetate. The samples are analyzed by LC-MS using 30-90% gradient of ACN in 50 mM ammonium acetate.
The pharmacokinetic parameters are calculated using WinNonlin software (Scientific Consulting Inc.). The bioavailability is calculated as AUCp.o./AUCi.v., where AUCp.o. and AUCi.v. are areas under the plasma concentration-time curve after oral and i.v. administration, respectively.

rat GnRH receptor = target: T1, rat GnRH receptor (Rattus norvegicus, UniProt P30969); assay: Radioligand binding assay: inhibition of binding of 125I-GnRH-A to GnRH receptors (membranes); settings: competition with 125I-GnRH-A, Ki calculated from IC50 (Cheng et al.)
T1 construct: rat pituitaries (Pel Freez Biologicals, Rogers, Ark.) are homogenized in buffer A; tissue Pel Freez Biologicals; host or cells: rat pituitaries
T1 sequence (P30969 1-327): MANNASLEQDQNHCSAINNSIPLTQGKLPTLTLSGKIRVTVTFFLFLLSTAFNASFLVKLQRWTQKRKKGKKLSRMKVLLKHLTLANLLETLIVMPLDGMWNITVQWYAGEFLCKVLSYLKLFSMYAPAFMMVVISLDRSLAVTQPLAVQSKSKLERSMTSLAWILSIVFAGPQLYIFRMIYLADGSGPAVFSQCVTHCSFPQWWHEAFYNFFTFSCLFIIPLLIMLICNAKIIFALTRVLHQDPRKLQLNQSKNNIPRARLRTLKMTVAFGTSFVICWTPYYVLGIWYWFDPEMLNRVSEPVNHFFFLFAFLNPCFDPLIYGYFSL
In short: (§1)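 Membranes from HEK 293 expressing mouse or human receptor, or rat pituitaries, incubated 1 h at RT with ~0.04–0.06 nM ¹²⁵I-[des-Gly¹⁰,D-Ala⁶]GnRH ethylamide and competitor (0.1–10,000 nM) in HEPES pH 7.4 with MgCl2, EDTA, BSA. Filtration onto PEI-soaked GF/C filters, scintillation counting; Ki from IC50 by Cheng–Prusoff.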

mouse GnRH receptors = target: T2, mouse GnRH receptors (Mus musculus, UniProt Q01776); assay: as above; settings: Mouse GnRH receptor; competition with 125I-GnRH-A; Ki calculated from IC50 (Cheng et al.)
T2 construct: expressed in transfected cells; host or cells: HEK 293
T2 sequence (Q01776 1-327): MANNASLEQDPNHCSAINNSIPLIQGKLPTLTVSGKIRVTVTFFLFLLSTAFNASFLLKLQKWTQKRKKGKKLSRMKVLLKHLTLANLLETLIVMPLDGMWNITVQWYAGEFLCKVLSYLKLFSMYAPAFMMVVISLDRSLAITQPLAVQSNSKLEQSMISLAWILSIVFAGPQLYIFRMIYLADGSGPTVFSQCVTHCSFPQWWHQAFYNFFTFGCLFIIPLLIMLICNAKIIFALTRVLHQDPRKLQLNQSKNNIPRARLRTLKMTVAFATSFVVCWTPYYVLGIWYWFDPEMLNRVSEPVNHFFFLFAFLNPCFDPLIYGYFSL
In short: as §1

SMILES	FR Fp.o. [1] [%^1]	Tmax [1] [h]	Ki (rat GnRH receptor) [nM]	Ki (mouse GnRH receptors) [nM]
Cc1cc2c(cc1Cc1ccc(C(=O)NNc3cc(C)c4c(C)nn(C)c4n3)o1)C(C)(C)CCC2(C)C [Example C1, 5-[(3,5,5,8,8-Pentamethyl-5,6,7,8-tetrahydro-2-naphthalenyl)methyl]-N′-(1,3,4-trimethyl-1H-pyrazolo[3,4-b]pyridin-6yl)-2-furohydrazide]	19	1	6.5	7
COc1cc2c(cc1Cc1ccc(C(=O)NNc3cc(C)c4c(C)nn(C)c4n3)o1)C(C)(C)CCC2(C)C [Example C2, 5-[(3-Methoxy-5,5,8,8-tetramethyl-5,6,7,8-tetrahydro-2-naphthalenyl)methyl]-N′-(1,3,4-trimethyl-1H-pyrazolo[3,4-b]pyridin-6-yl)-2-furohydrazide]	15	2	32	23
